From US20240277689A1, “METHOD OF TREATING AN AUTOIMMUNE HEMATOLOGICAL DISORDER” (Novartis AG, priority 2021, published 2024)

Legend:
[1] = system: complement alternative pathway; settings: multiple in vitro and in vivo non-clinical mechanistic studies; cited from earlier work
AP activity (Wieslab) = experiment: First in human (FIH) studies: suppression of AP activity (Wieslab); format: in vivo
Method: In the FIH studies, there was rapid suppression of the AP activity (Wieslab) with approximately 80% or greater inhibition achieved at two hours post-dose for participants receiving single dose of 200 mg iptacopan. The suppression of the AP (80% or greater inhibition) was sustained over 14 days of dosing at 200 mg b.i.d. The exposure-response model developed with data from the FIH study with iptacopan in healthy volunteers predicts that a dose of about 200 mg b.i.d. would be needed to achieve >90% inhibition of the AP (Wieslab assay) in most participants. Preclinical studies supported acceptable safety margins for human exposure following 200 mg b.i.d. dosing.
Given the observed PK/PD profile in a first in human study in healthy volunteers, a 200 mg b.i.d dose of iptacopan is selected for this study.

CCO[C@H]1CCN(Cc2c(OC)cc(C)c3[nH]ccc23)[C@H](c2ccc(C(=O)O)cc2)C1 [iptacopan, 4-((2S,4S)-(4-ethoxy-1-((5-methoxy-7-methyl-1H-indol-4-yl)methyl)piperidin-2-yl))benzoic acid]
inhibition of the complement alternative pathway [1]: demonstrated inhibition of the complement alternative pathway | suppression of the AP (inhibition), sustained (AP activity (Wieslab); over 14 days of dosing at 200 mg b.i.d.): ≥ 80% | inhibition of AP activity (Wieslab) (AP activity (Wieslab); two hours post-dose, single dose of 200 mg, FIH participants): ≥ 80%
